Reference: patent US10457710B2, “Antimicrobial peptides, their variants and uses” (priority 2015, dated 2019)
Where a SMILES comes first, the peptide text is derived from it. [ ]: non-standard residue; d: D form.

Experiments:
Type in all cases: cell-based
Candida albicans = assay: MIC, clinical yeast strains
Protocol: (§1) Minimum inhibition concetrations (MICs) were determined against Escherichia coli (ATCC 25922), Staphylococcus aureus (ATCC 25923), Klebsiella pneumoniae (ATCC 10031) and Pseudomonas aeruginosa (ATCC 27853). Also clinical strains of E. coli, K. pneumoniae, E. cloacae, P. aeruginosa, Serratia marcescens, Proteus mirabilis, S. pneumoniae, Acinetobacter baumannii, A. johnsonii and S. aureus were used for MICs assays. Additionally, clinical strains of yeast including Candida albicans, C. glabrata, C. parapsilosis and C. quillermondiae were used. The susceptibility of these microorganisms to Chain peptides were determined using micro broth dilution assay. Colonies of the respective microorganism from Muller Hinton (MH) agar plates incubated overnight were suspended in MH broth media and final concentration of microorganism was adjusted to 5.0×10^5 cfu/ml. An aliquot of 10 μl of each Chain peptide, or gentamicin, tetracycline as reference antibiotics were added in differing concentrations along with 90 μl of bacterial suspension to 96 well polypropylene plates and incubated at 37° C. for 20 to 24 hours. Concentrations of Chain peptides and reference antibiotics ranged from 0.125 to 128 μg/ml and the MICs were recorded as the lowest concentration with no visual growth of bacteria. Similarly, antifungal MICs were tested in Potato dextrose broth.
(§2) Clinical strains of yeasts including Candida albicans, C. glabrata, C. parapsilosis and C. quillermondiae were also tested with the 12 Chain peptides. The minimum inhibitory concentration (MICs) varied between these peptides and are presented in Tables 4a, 4b, 4c and 5a, 5b, 5c. Peptides Chain 105, 201 and 308 are broad spectrum antimicrobials with MICs between 0.5-32 μg/ml against all the bacteria and yeasts tested, except Serratia marcescens and Proteus mirabilis, against which the MICs were between 64-128 μg/ml. Peptide Chain 306 has narrow spectrum activity against E. coli at 1 μg/ml and for the rest of the bacterial strains at >32 μg/ml (FIG. 10c).

C. glabrata = assay: MIC, clinical yeast strains
Protocol: as §1, §2

C. parapsilosis = assay: MIC, clinical yeast strains
Protocol: as §1, §2

C. quillermondiae = assay: MIC, clinical yeast strains; set-up: Minimum inhibitory concentration: unit: μg/ml; conditions: C. quillermondiae clinical yeast strain 1
Protocol: as §1, §2

[1] = tested on: clinical strains of S. aureus; assay: MIC, microdilution, clinical strains; conditions: 0.02% BSA, 0.2% acetic acid
Protocol: as §1, §2

[2] = tested on: clinical strains of E. coli; assay: MIC, microdilution, clinical strains; conditions: microdilution, Muller Hinton broth-cation adjusted, 0.02% BSA, 0.2% acetic acid
Protocol: as §1, §2

[3] = tested on: clinical strains of Proteus mirabilis; assay: MIC, microdilution, clinical strains; conditions: 0.02% BSA, 0.2% acetic acid
Protocol: as §1, §2

[4] = tested on: clinical strains of Serratia marcescens; assay: MIC, microdilution, clinical strains; conditions: 0.02% BSA, 0.2% acetic acid
Protocol: as §1, §2

[5] = tested on: clinical strains of K. pneumoniae; assay: MIC, microdilution, clinical strains; conditions: 0.02% BSA, 0.2% acetic acid
Protocol: as §1, §2

[6] = tested on: clinical strains of P. aeruginosa; assay: MIC, microdilution, clinical strains; conditions: 0.02% BSA, 0.2% acetic acid
Protocol: as §1, §2

[7] = tested on: clinical strains of E. cloacae; assay: MIC, microdilution, clinical strains; conditions: 0.02% BSA, 0.2% acetic acid
Protocol: as §1, §2

[8] = tested on: clinical strains of S. pneumoniae; assay: MIC, microdilution, clinical strains; conditions: 0.02% BSA, 0.2% acetic acid
Protocol: as §1, §2

[9] = Candida albicans clinical yeast strain 1
[10] = Candida albicans clinical yeast strain 2
[11] = Candida albicans clinical yeast strain 3
[12] = Candida albicans clinical yeast strain 4
[13] = Candida albicans clinical yeast strain 5
[14] = C. glabrata clinical yeast strain 1
[15] = C. glabrata clinical yeast strain 2
[16] = C. glabrata clinical yeast strain 3
[17] = C. glabrata clinical yeast strain 4
[18] = C. parapsilosis clinical yeast strain 1
[19] = C. parapsilosis clinical yeast strain 2
[20] = C. parapsilosis clinical yeast strain 3
[21] = C. parapsilosis clinical yeast strain 4

C[C@@H]1[C@H](O)[C@@H](C)/C=C/C=C/C=C/C=C/C=C/C=C/C=C/[C@H](O[C@@H]2O[C@H](C)[C@@H](O)[C@H](N)[C@@H]2O)C[C@@H]2O[C@](O)(C[C@@H](O)C[C@@H](O)[C@H](O)CC[C@@H](O)C[C@@H](O)CC(=O)O[C@H]1C)C[C@H](O)[C@H]2C(=O)O [Amphotericin B]
Minimum inhibitory concentration (Candida albicans; [9]): 2
Minimum inhibitory concentration (Candida albicans; [10]): 0.5
Minimum inhibitory concentration (Candida albicans; [11]): 2
Minimum inhibitory concentration (Candida albicans; [12]): 2
Minimum inhibitory concentration (Candida albicans; [13]): 2
Minimum inhibitory concentration (C. glabrata; [14]): 4
Minimum inhibitory concentration (C. glabrata; [15]): 4
Minimum inhibitory concentration (C. glabrata; [16]): 2
Minimum inhibitory concentration (C. glabrata; [17]): 4
Minimum inhibitory concentration (C. parapsilosis; [18]): 2
Minimum inhibitory concentration (C. parapsilosis; [19]): 2
Minimum inhibitory concentration (C. parapsilosis; [20]): 2
Minimum inhibitory concentration (C. parapsilosis; [21]): 2
Minimum inhibitory concentration (C. quillermondiae): 2

CC(C)C[C@@H](NC(=O)[C@H](N)CCCNC(=N)N)C(=O)N[C@H](CCCCN)C(=O)N[C@H](Cc1c[nH]c2ccccc12)C(=O)N[C@H](Cc1ccccc1)C(=O)N[C@H](Cc1c[nH]c2ccccc12)C(=O)N[C@H](CC(C)C)C(=O)N[C@H](Cc1ccccc1)C(=O)N[C@H](CCCNC(=N)N)C(=O)N[C@H](CCCCN)C(=O)N[C@H](CCCNC(=N)N)C(=O)O [Chain307D] (H-[dR][dL][dK][dW][dF][dW][dL][dF][dR][dK][dR]-OH)
Minimum inhibitory concentration (Candida albicans; [9]): 16
Minimum inhibitory concentration (Candida albicans; [10]): 16
Minimum inhibitory concentration (Candida albicans; [11]): 16
Minimum inhibitory concentration (Candida albicans; [12]): 16
Minimum inhibitory concentration (Candida albicans; [13]): 16
Minimum inhibitory concentration (C. glabrata; [14]): 8
Minimum inhibitory concentration (C. glabrata; [15]): 16
Minimum inhibitory concentration (C. glabrata; [16]): 8
Minimum inhibitory concentration (C. glabrata; [17]): 16
Minimum inhibitory concentration (C. parapsilosis; [18]): 16
Minimum inhibitory concentration (C. parapsilosis; [19]): 8
Minimum inhibitory concentration (C. parapsilosis; [20]): 8
Minimum inhibitory concentration (C. parapsilosis; [21]): 8
Minimum inhibitory concentration (C. quillermondiae): 4
Minimum inhibitory concentration ([1]; Staphylococcus aureus strain 1, Muller Hinton broth-cation adjusted): 2
Minimum inhibitory concentration ([1]; Staphylococcus aureus strain 2, Muller Hinton broth-cation adjusted): 2
Minimum inhibitory concentration ([1]; Staphylococcus aureus strain 3, Muller Hinton broth-cation adjusted): 2
Minimum inhibitory concentration ([1]; Staphylococcus aureus strain 4, Muller Hinton broth-cation adjusted): 2
Minimum inhibitory concentration ([1]; Staphylococcus aureus strain 5, Muller Hinton broth-cation adjusted): 2
Minimum inhibitory concentration ([2]; Escherichia coli strain 1): 4
Minimum inhibitory concentration ([2]; Escherichia coli strain 2): 4
Minimum inhibitory concentration ([2]; Escherichia coli strain 3): 4
Minimum inhibitory concentration ([2]; Escherichia coli strain 4): 2
Minimum inhibitory concentration ([2]; Escherichia coli strain 5): 4
Minimum inhibitory concentration ([3]; Proteus mirabilis strain 1, Muller Hinton broth-cation adjusted): >128
Minimum inhibitory concentration ([3]; Proteus mirabilis strain 2, Muller Hinton broth-cation adjusted): 128
Minimum inhibitory concentration ([3]; Proteus mirabilis strain 3, Muller Hinton broth-cation adjusted): 128
Minimum inhibitory concentration ([3]; Proteus mirabilis strain 4, Muller Hinton broth-cation adjusted): >128
Minimum inhibitory concentration ([3]; Proteus mirabilis strain 5, Muller Hinton broth-cation adjusted): >128
Minimum inhibitory concentration ([4]; Serratia marcescens strain 1, Muller Hinton broth-cation adjusted): >128
Minimum inhibitory concentration ([4]; Serratia marcescens strain 2, Muller Hinton broth-cation adjusted): >128
Minimum inhibitory concentration ([4]; Serratia marcescens strain 3, Muller Hinton broth-cation adjusted): 128
Minimum inhibitory concentration ([4]; Serratia marcescens strain 4, Muller Hinton broth-cation adjusted): >128
Minimum inhibitory concentration ([4]; Serratia marcescens strain 5, Muller Hinton broth-cation adjusted): >128
Minimum inhibitory concentration ([5]; Klebsiella pneumoniae strain 1, Muller Hinton broth-cation adjusted): 8
Minimum inhibitory concentration ([5]; Klebsiella pneumoniae strain 2, Muller Hinton broth-cation adjusted): 8
Minimum inhibitory concentration ([5]; Klebsiella pneumoniae strain 3, Muller Hinton broth-cation adjusted): 16
Minimum inhibitory concentration ([5]; Klebsiella pneumoniae strain 4, Muller Hinton broth-cation adjusted): 16
Minimum inhibitory concentration ([5]; Klebsiella pneumoniae strain 5, Muller Hinton broth-cation adjusted): 4
Minimum inhibitory concentration ([6]; Pseudomonas aeruginosa strain 1, Muller Hinton broth-cation adjusted): 16
Minimum inhibitory concentration ([6]; Pseudomonas aeruginosa strain 2, Muller Hinton broth-cation adjusted): 16
Minimum inhibitory concentration ([6]; Pseudomonas aeruginosa strain 3, Muller Hinton broth-cation adjusted): 16
Minimum inhibitory concentration ([6]; Pseudomonas aeruginosa strain 4, Muller Hinton broth-cation adjusted): 8
Minimum inhibitory concentration ([6]; Pseudomonas aeruginosa strain 5, Muller Hinton broth-cation adjusted): 8
Minimum inhibitory concentration ([7]; Enterobacter cloacae strain 1, Muller Hinton broth-cation adjusted): 4
Minimum inhibitory concentration ([7]; Enterobacter cloacae strain 2, Muller Hinton broth-cation adjusted): 8
Minimum inhibitory concentration ([7]; Enterobacter cloacae strain 3, Muller Hinton broth-cation adjusted): 4
Minimum inhibitory concentration ([7]; Enterobacter cloacae strain 4, Muller Hinton broth-cation adjusted): 4
Minimum inhibitory concentration ([7]; Enterobacter cloacae strain 5, Muller Hinton broth-cation adjusted): 4
Minimum inhibitory concentration ([8]; Streptococcus pneumoniae strain 1, Muller Hinton broth-cation adjusted): 4
Minimum inhibitory concentration ([8]; Streptococcus pneumoniae strain 2, Muller Hinton broth-cation adjusted): 4
Minimum inhibitory concentration ([8]; Streptococcus pneumoniae strain 3, Muller Hinton broth-cation adjusted): 4
Minimum inhibitory concentration ([8]; Streptococcus pneumoniae strain 4, Muller Hinton broth-cation adjusted): 2
Minimum inhibitory concentration ([8]; Streptococcus pneumoniae strain 5, Muller Hinton broth-cation adjusted): 2
